Here are results for 21 compounds from patent publication US7435837B2, “Dihydrobenzofuranyl alkanamine derivatives and methods for using same” (Wyeth, priority 2003, dated 2008).

The Ki is the equilibrium dissociation constant of an inhibitor or competing ligand from its target. As a reminder, the EC50 is the concentration that produces a half-maximal response.

Where two headings read alike, the source gives them in different places.

The target of test [1] is T1, human 5-hydroxytryptamine-2C (h5-HT2C) receptor (Homo sapiens, UniProt P28335).
T1 construct: expressed in transfected cells; host or cells: CHO (Chinese Hamster Ovary) cells; membranes
T1 sequence (P28335 33-458): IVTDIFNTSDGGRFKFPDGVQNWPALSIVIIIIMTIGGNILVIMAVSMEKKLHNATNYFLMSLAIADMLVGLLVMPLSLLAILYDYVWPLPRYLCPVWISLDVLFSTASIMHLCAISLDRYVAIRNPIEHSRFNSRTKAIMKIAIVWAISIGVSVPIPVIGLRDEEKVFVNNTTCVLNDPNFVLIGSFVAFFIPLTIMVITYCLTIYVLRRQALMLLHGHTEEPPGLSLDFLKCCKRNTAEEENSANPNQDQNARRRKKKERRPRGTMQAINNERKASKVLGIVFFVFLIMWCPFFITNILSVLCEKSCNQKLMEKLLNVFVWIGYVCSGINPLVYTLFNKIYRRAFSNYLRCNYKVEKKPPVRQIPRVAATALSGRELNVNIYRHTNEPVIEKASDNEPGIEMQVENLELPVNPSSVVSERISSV
The test is described as follows: [125I]DOI binding to membranes of CHO cells expressing the human 5-HT2C receptor. Particulars: [125I]DOI radioligand, CHO cell membranes, room temperature 60 min; read-out: 5-HT2C Affinity Ki.

The target of the next test is T2, human 5-HT2C receptor (Homo sapiens, UniProt P28335).
T2 sequence (P28335 33-458): T1 sequence (P28335 33-458)
The test is described as follows: 5-HT2C receptor-stimulated calcium mobilization (FLIPR) in CHO cells.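 On all read-outs here: Fluo-3-AM fluorescence read on FLIPR every 1 s, agonist added after 10 baseline reads, response taken as peak minus lowest raw fluorescence count.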 The format is cell-based. Particulars: for Emax: CHO; for EC50: calcium mobilization, CHO cells stably expressing human 5-HT2C, read-out: 5-HT2C Function EC50. Background: A change in cytosolic calcium serves as a functional read-out for many receptors and channels.

Where [2] appears, read: percentage of the response observed with a maximally effective concentration of 5-HT, read-out: 5-HT2C Function Emax (%).
[3] abbreviates: percentage of the response observed with a maximally effective concentration of 5-HT.

For `CNCC1Cc2cc(OC)cc(-c3c(C)cccc3C)c2O1` (single isomer, unassigned; (-)) [Example 560, (−)-{[7-(2,6-dimethylphenyl)-5-methoxy-2,3-dihydro-1-benzofuran-2-yl]methyl}methylamine], in test [1], the Ki is 0.35 nM. At human 5-HT2C receptor (setting [2]), the Emax is 100%. On human 5-HT2C receptor, the EC50 amounted to 2 nM.
In the same order, the values of `NCC1Cc2cc(Cl)cc(-c3cc(Cl)ccc3Cl)c2O1` (racemic) [Example 256, (±)-{[5-chloro-7-(2,5-dichlorophenyl)-2,3-dihydro-1-benzofuran-2-yl]methyl}amine] are 0.74 nM, 100% and 4 nM.
With `CNCC1Cc2cc(C)cc(-c3cccc(OC)c3OC)c2O1` (racemic) [Example 484, (±)-{[7-(2,3-dimethoxyphenyl)-5-methyl-2,3-dihydro-1-benzofuran-2-yl]methyl}methylamine], the Ki in test [1] is 0.51 nM. Further, the Emax on human 5-HT2C receptor (setting [2]) came out at 70%. In addition, the EC50 at human 5-HT2C receptor amounted to 43 nM.
Consider `CNCC1Cc2cc(OC)cc(-c3cccc(C)c3C)c2O1` (racemic) [Example 496, (±)-{[7-(2,3-dimethylphenyl)-5-methoxy-2,3-dihydro-1-benzofuran-2-yl]methyl}methylamine], for which the Ki in test [1] came out at 46 nM. For the same compound, the Emax at human 5-HT2C receptor (setting [2]) is 60%. For the same compound, at human 5-HT2C receptor, the EC50 came to 510 nM.
In the case of `Cc1cc2c(c(-c3ccc(Cl)cc3Cl)c1)OC(CN)C2` (single isomer, unassigned; (-)) [Example 298, (−)-{[7-(2,4-dichlorophenyl)-5-methyl-2,3-dihydro-1-benzofuran-2-yl]methyl}amine], the inhibition constant Ki in test [1] is 11 nM. Also, on human 5-HT2C receptor (setting [2]), the Emax came out at 90%. Also, the EC50 at human 5-HT2C receptor is 30 nM.
Take `CNCC1Cc2cc(C)cc(-c3ccc(C)cc3)c2O1` (racemic) [Example 480, (±)-{[7-(4-methylphenyl)-5-methyl-2,3-dihydro-1-benzofuran-2-yl]methyl}methylamine]: the Ki in test [1] was 4.4 nM. The Emax at human 5-HT2C receptor (setting [2]) came to 70%. Moreover, the EC50 on human 5-HT2C receptor came out at 251 nM.
With `NCC1Cc2cc(F)cc(-c3ccc(Cl)cc3Cl)c2O1` (racemic) [Example 216, (±)-{[7-(2,4-dichlorophenyl)-5-fluoro-2,3-dihydro-1-benzofuran-2-yl]methyl}amine], the Ki in test [1] is 0.7 nM. Moreover, the Emax on human 5-HT2C receptor (read-out: 5-HT2C Function Emax (%), percentage of the response observed with a maximally effective concentration of 5-HT) worked out at 100%. Besides, the EC50 at human 5-HT2C receptor worked out at 0.2 nM.
As for `NCC1Cc2cccc(-c3c(Cl)cc(Cl)cc3Cl)c2O1` (racemic) [Example 166, (±)-{[7-(2,4,6-trichlorophenyl)-2,3-dihydro-1-benzofuran-2-yl]methyl}amine], in test [1], the Ki is 8 nM. Further, the Emax at human 5-HT2C receptor (setting [2]) turned out to be 90%. The half-maximal effective concentration (EC50) at human 5-HT2C receptor was determined as 0.2 nM.
Taken in the same sequence, the figures for `NCC1Cc2ccc(F)c(-c3ccccc3Cl)c2O1` (racemic) [Example 398, (±)-{[7-(2-chlorophenyl)-6-fluoro-2,3-dihydro-1-benzofuran-2-yl]methyl}amine] were 0.04 nM, 100% and 0.1 nM.
In the case of `CNCC1Cc2cccc(-c3ccc(Cl)cc3)c2O1` (racemic) [Example 420, (±)-[(N-methyl-1-[7-(4-chlorophenyl)-2,3-dihydro-1-benzofuran-2-yl]methanamine], in test [1], the Ki is 7 nM. The Emax at human 5-HT2C receptor (setting [2]) was 80%. Further, the EC50 on human 5-HT2C receptor was determined as 504 nM.
Taken in the same sequence, the figures for `CNCC1Cc2cc(C)cc(-c3ccccc3Cl)c2O1` (racemic) [Example 476, (±)-{[7-(2-chlorophenyl)-5-methyl-2,3-dihydro-1-benzofuran-2-yl]methyl}methylamine] were 0.2 nM, 100% and 5 nM.
For the compound `COc1cc2c(c(-c3ccc(F)cc3F)c1)OC(CN)C2` (racemic) [Example 364, (±)-{[7-(2,4-difluorophenyl)-5-methoxy-2,3-dihydro-1-benzofuran-2-yl]methyl}amine], the inhibition constant Ki in test [1] amounted to 0.9 nM. The Emax at human 5-HT2C receptor (setting [2]) stood at 85%. The EC50 at human 5-HT2C receptor came to 62 nM.
In the same order, the values of `CNCC1Cc2cc(Cl)cc(-c3cc(Cl)ccc3Cl)c2O1` (single isomer, unassigned; (+)) [Example 562, (+)-{[5-chloro-7-(2,5-dichlorophenyl)-2,3-dihydro-1-benzofuran-2-yl]methyl}methylamine] are 0.48 nM, 90% and 2 nM.
Take `NCC1Cc2cccc(-c3cc(Cl)ccc3Cl)c2O1` (single isomer, unassigned; (+)) [Example 164, (+)-{[7-(2,5-dichlorophenyl)-2,3-dihydro-1-benzofuran-2-yl]methyl}amine]: in test [1], the Ki amounted to 0.28 nM. Also, the EC50 at human 5-HT2C receptor is 0.3 nM. Also, the “5-HT2C Function Emax (%)” value at human 5-HT2C receptor (setting [3]) is 100%.
In the same order, the values of `NCC1Cc2cccc(-c3c(Cl)cccc3Cl)c2O1` (single isomer, unassigned; (+)) [Example 142, (+)-1-[7-(2,6-dichlorophenyl)-2,3-dihydro-1-benzofuran-2-yl]methanamine] are 1.6 nM, 101 nM and 80%.
In the case of `CNCC1Cc2cc(OC)cc(-c3c(C)cccc3C)c2O1` (racemic) [Example 504, (±)-{[7-(2,6-dimethylphenyl)-5-methoxy-2,3-dihydro-1-benzofuran-2-yl]methyl}methylamine], the Ki in test [1] came out at 1.2 nM. At human 5-HT2C receptor (setting [2]), the Emax was 90%. At human 5-HT2C receptor, the EC50 was 27 nM.
Take `Cc1cc(Cl)ccc1-c1cccc2c1OC(CN)C2` (single isomer, unassigned; (-)) [Example 159, (−)-{[7-(4-chloro-2-methylphenyl)-2,3-dihydro-1-benzofuran-2-yl]methyl}amine]: in test [1], the Ki was found to be 12 nM. Moreover, the concentration for a half-maximal effect (EC50) on human 5-HT2C receptor came to 636 nM. For the same compound, the “5-HT2C Function Emax (%)” value on human 5-HT2C receptor (setting [3]) was found to be 80%.
For the compound `CNCC1Cc2cc(F)cc(-c3cc(F)ccc3F)c2O1` (racemic) [Example 448, (±)-{[7-(2,5-difluorophenyl)-5-fluoro-2,3-dihydro-1-benzofuran-2-yl]methyl}methylamine], the Ki in test [1] amounted to 7 nM. Moreover, the Emax at human 5-HT2C receptor (setting [2]) worked out at 70%. On human 5-HT2C receptor, the EC50 is 78 nM.
Taken in the same sequence, the figures for `CNCC1Cc2cc(OC)cc(-c3cccc(Cl)c3Cl)c2O1` (racemic) [Example 495, (±)-{[7-(2,3-dichlorophenyl)-5-methoxy-2,3-dihydro-1-benzofuran-2-yl]methyl}methylamine] were 41 nM, 60% and 338 nM.
Turning to `NCC1Cc2cccc(-c3ccc(C(F)(F)F)cc3)c2O1` (single isomer, unassigned; (-)) [Example 138, (−)-1-{7-[4-(trifluoromethyl)phenyl]-2,3-dihydro-1-benzofuran-2-yl}methanamine], the Ki in test [1] is 7.4 nM. Besides, the EC50 on human 5-HT2C receptor stood at 3800 nM. The “5-HT2C Function Emax (%)” value on human 5-HT2C receptor (setting [3]) is 60%.
`NCC1Cc2cc(F)cc(-c3ccccc3C(F)(F)F)c2O1` (racemic) [Example 108, (±)-1-{5-fluoro-7-[2-(trifluoromethyl)phenyl]-2,3-dihydro-1-benzofuran-2-yl}methanamine]: in test [1], the Ki stood at 4 nM. Moreover, at human 5-HT2C receptor (setting [2]), the Emax was 95%. On human 5-HT2C receptor, the concentration for a half-maximal effect (EC50) is 39 nM.
